From patent US7541339B2, “Par-2-activating peptide derivative and pharmaceutical composition using the same” (The University of Edinburgh, priority 2002, dated 2009)
pEC50: −log10 of the molar value. Read-outs that look alike come from different tables or passages of the source. Peptide text beside a SMILES is read from it. * marks the point of attachment. 2Furoyl = O=C(c1ccco1)*

Molecular target: T1, human PAR-2 (Homo sapiens, UniProt P55085)
T1 construct: Human colorectal adenocarcinoma cell line, HCT-15, expressing endogenous PAR-2 at high levels; endogenous in cells; host or cells: HCT-15 (human colorectal adenocarcinoma)
T1 sequence (P55085 26-397): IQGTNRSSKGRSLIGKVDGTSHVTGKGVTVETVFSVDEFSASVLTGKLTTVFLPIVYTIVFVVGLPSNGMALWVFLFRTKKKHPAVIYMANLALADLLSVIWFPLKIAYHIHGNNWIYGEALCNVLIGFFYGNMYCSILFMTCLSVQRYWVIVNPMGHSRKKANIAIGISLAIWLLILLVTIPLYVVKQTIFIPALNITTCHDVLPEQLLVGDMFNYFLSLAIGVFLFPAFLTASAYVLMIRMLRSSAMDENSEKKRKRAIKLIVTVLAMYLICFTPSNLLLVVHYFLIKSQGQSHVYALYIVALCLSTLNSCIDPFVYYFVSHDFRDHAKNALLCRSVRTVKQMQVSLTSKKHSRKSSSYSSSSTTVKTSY
Test: PAR-2 activation potency: intracellular calcium mobilization assay (modified Hawthorne's method) in HCT-15 cells
Format: cell-based
Source text: PAR-2 activation with the peptide derivative represented by the general formula (I) in accordance with the invention can be tested by various known methods. For example, the Hollenberg's method (Hollenberg, M. D., et al., Can. J. Physiol. Pharmacol., 75, 832-841 (1997)), the Kawabata's method (Kawabata, A., et al., J. Pharmacol. Exp. Ther., 288, 358-370 (1999)) and the Hawthorne's method (Howthorne et al., A High-Throughput Microtiter Plate-Based Calcium Assay for the Study of Protease-Activated Receptor 2 Activation, Analytical Biochemistry 290, 378-379 (2001)) may be used for the test.
The inventors tested the PAR-2 activation potency according to the modified Hawthorne's method. In brief, that is the assay of the calcium mobilization in cells endogenously expressing human PAR-2. In this assay, cells were loaded with Fluorescent Ca2+ indicator dye in presence of Probenecid, an inhibitor of anion exchange transporter, and stimulated with agonists. The agonist-mediated intracellular calcium mobilization was measured using multiwell plate reader.
Human colorectal adenocarcinoma cell line, HCT-15, expressing endogenous PAR-2 at high levels were seeded in 96-well black wall clear bottom plates and subconfluent cells were loaded with Fluorescent Ca2+ indicator dye (Calcium Plus Assay Reagent, Molecular Devices) in serum free medium (RPMI) containing 2.5 mM Probenecid and incubated for 1 hr at 37 C. Then cells were stimulated with various concentrations of test compounds and fluorescent change was determined at wave length of 485 nm for excitation and 525 nm for emission (Cutoff 515 nm) using multiwell scanning fluorometer (FlexStation, Molecular Devices).
SLIGKV-OH (SEQ ID NO: 2) as a known PAR-2 activation peptide was used as a comparative compound, and the results are shown below in Table 1.

| pEC50 (HCT-15 cells expressing endogenous PAR-2, fluorescent Ca2+ indicator dye, 2.5 mM Probenecid, read-out: Agonist Activity (EC50)) | Molecule | pEC50 |
| --- | --- | --- |
| – | CC[C@H](C)[C@H](NC(=O)[C@H](CC(C)C)NC(=O)c1ccco1)C(=O)NCC(=O)N[C@@H](CCCCN)C(=O)N[C@H](C(=O)O)C(C)C [Example 6] (2Furoyl-LIGKV-OH; C-terminus assumed) | 5.77 |
| – | CC[C@H](C)[C@H](NC(=O)[C@H](CC(C)C)NC(=O)c1ccco1)C(=O)NCC(=O)N[C@@H](CCCCN)C(=O)N[C@H](C(N)=O)C(C)C [Example 16] (2Furoyl-LIGKV-NH2; C-terminus assumed) | 6.49 |
| – | CC[C@H](C)[C@H](NC(=O)[C@H](CC(C)C)NC(=O)c1ccco1)C(=O)NCC(=O)N[C@@H](CCCNC(=N)N)C(=O)N[C@@H](CC(C)C)C(=O)O [Example 18] | 5.92 |
| 4.64 | H-SLIGKV-OH [SLIGKV-OH, reference compound] | – |
